Source: ChEMBL document CHEMBL4330120, “Identification of selective and reversible LSD1 inhibitors with anti-metastasis activity by high-throughput docking” (Bioorg Med Chem Lett, 2019)
pIC50: −log10 of the molar value.

Assays:
[1] = in vitro; details: human, SW620 cells
Description: Cytotoxicity against human SW620 cells assessed as inhibition of cell proliferation at 100 uM after 4 hrs by MTT assay relative to control

[2] = in vitro; details: human, HCT8 cells
Description: Cytotoxicity against human HCT8 cells assessed as inhibition of cell proliferation at 100 uM after 4 hrs by MTT assay relative to control

[3] = molecular target: T1, Amine oxidase [flavin-containing] A (Homo sapiens, UniProt P21397); experiment: biochemical
T1 sequence (P21397 whole entry): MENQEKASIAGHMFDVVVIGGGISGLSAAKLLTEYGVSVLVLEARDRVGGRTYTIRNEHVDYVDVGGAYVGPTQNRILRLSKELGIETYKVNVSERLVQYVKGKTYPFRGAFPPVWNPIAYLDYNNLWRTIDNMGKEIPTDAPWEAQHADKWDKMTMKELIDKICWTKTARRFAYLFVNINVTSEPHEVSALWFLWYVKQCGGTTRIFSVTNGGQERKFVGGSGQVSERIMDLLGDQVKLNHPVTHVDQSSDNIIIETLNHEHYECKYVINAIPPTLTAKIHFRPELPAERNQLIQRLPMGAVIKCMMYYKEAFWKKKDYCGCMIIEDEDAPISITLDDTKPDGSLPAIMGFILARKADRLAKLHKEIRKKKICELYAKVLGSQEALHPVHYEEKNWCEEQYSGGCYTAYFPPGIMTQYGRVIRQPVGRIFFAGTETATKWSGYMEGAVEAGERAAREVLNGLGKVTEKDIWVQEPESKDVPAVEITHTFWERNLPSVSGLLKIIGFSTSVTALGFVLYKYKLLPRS
Description: Inhibition of recombinant human MAOA expressed in baculovirus infected BTI insect cells using beetle luciferin as substrate after 1 hr by MAO-Glo assay

[4] = molecular target: T2, Amine oxidase [flavin-containing] B (Homo sapiens, UniProt P27338); experiment: biochemical
T2 sequence (P27338 whole entry): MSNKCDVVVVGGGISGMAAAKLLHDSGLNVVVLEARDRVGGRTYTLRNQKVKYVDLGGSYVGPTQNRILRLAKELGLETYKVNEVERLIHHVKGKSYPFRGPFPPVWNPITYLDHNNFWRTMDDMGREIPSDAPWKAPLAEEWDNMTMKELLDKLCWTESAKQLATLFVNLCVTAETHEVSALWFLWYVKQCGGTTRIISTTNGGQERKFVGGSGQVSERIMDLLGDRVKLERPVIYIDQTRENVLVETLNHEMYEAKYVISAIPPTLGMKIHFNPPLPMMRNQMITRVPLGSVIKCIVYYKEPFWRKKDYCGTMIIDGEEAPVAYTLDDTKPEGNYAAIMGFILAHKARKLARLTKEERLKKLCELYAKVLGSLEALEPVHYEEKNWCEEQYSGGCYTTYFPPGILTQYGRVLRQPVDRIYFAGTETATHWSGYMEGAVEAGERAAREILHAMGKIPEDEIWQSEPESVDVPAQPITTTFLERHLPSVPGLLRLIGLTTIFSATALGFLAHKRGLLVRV
Description: Inhibition of recombinant human MAOB expressed in baculovirus infected BTI insect cells using beetle luciferin as substrate after 1 hr by MAO-Glo assay

[5] = molecular target: Lysine-specific histone demethylase 1A (Homo sapiens, UniProt O60341)
Description: Inhibition of human N-terminal GST-tagged LSD1 isoform2 (158 to end residues) expressed in Escherichia coli using methylated peptide as substrate preincubated with substrate for 15 mins followed by enzyme addition and measured after 30 mins by amplex red and horseradish peroxidase based fluorescence assay

Row | inhibition at 4 h, 100 µM [1] | inhibition at 4 h, 100 µM [2] | pIC50 [3] | pIC50 [4] | pIC50 [5] | SMILES
1 | 35% | 35% | < 3.70 | < 3.70 |  | O=C(CCC1NC(=O)NC1=O)NCCc1c[nH]c2ccccc12 (stereo not given)
2 |  |  |  |  | < 4.00 | Cc1nc(-c2ccc(CN(C)Cc3cccc4cnccc34)cc2)[nH]c(=O)c1F
